Measurements as given in US20090221095A1, “Colorimetric Screening of DNA Binding/Intercalating Agents with Gold Nanoparticle Probes” (NORTHWESTERN UNIVERSITY, priority 2005, published 2009).

Columns and labels:
Assay type in all cases: binding
[1] = tested on: triplex DNA (DNA-1, DNA-2, DNA-3); assay: UV melting (260 nm) of unmodified triplex DNA-1, DNA-2, DNA-3 (no nanoparticles); conditions: duplex melting transition; solution-phase unmodified DNA, 1 μM each strand, 6 μM binder, 0.5 M NaCl 10 mM PBS
Procedure: To compare the results from the previous examples with more traditional screening techniques, all eight intercalators were screened, plus a control, by monitoring UV absorbance melting curves (260 nm) of unmodified DNA-1, DNA-2, and DNA-3 (1 μM each), with each intercalator (10 μM), (DNA-1; 3′ TTCTTCTTTTTT CT-5′. DNA-2: 5′-TTCTTCTTTTTTCT-3′, DNA-3: 5′-AAGAAGAAAAAA-3′). (FIG. 2B). The melting experiment performed in the presence of BePl has two melting transitions. The first Tm at 34.8° C. is associated with the denaturation of the triplex structure and the second Tm at 61.4° C. is representative of the corresponding duplex.
(§1) To determine the Tm of the duplex DNA in the presence of DNA binders, 2 μM duplex DNA and 5 μM DNA binder were combined in 0.3 M NaCl 10 mM PBS. To determine the Tm of the triplex DNA in the presence of DNA binders, 1 μM of each strand and 6 μM of each DNA binder were combined in 0.5 M NaCl 10 mM PBS. UV-vis melting curves were measured on a CARRY 500 spectrophotometer equipped with a circulating bath. The melting process was monitored by measuring the change in extinction at 260 nm. The solutions were stirred continuously with a magnetic stir bar as the solution temperature was increased at a rate of 0.5° C./min. The first derivative generated from the melting curves was used to determine the Tm.
A melting transition associated with the triple helix was found only for experiments performed in the presence of BePI (34.8° C.) and CORA (17.1° C.) where BePI is determined to be the stronger binder. This is in agreement with the results determined by the chip-based scanometric method described above.

[2] = tested on: duplex DNA between NP-1 and NP-2; assay: Melting temperature of NP-1/NP-2 gold nanoparticle duplex nanoassemblies (520 nm); conditions: NP-1 and NP-2 1.5 nM each, intercalator 5 μM, 10 mM PBS pH 7.0, NaCl 0.1 M, control 26.4
Excerpt: This method also utilizes the aggregation-induced, red-to-blue color change associated with 13 nm Au nanoparticles. Gold nanoparticles are functionalized with one of two complementary thiol-modified oligonucleotide strands and are denoted NP-1 and NP-2. When NP-1 and NP-2 are combined, they form aggregates through a reversible DNA hybridization process. This process results in a red-to-blue color change due to a red-shifting and dampening of the nanoparticle plasmon resonance. Increasing the temperature above the melting temperature of the DNA reverses the process, and the particles dissociate with a concomitant blue-to-red color change. […] This increased stability is reflected by an increase in melting temperature. Note that the shape and breadth of the transition is almost independent of the intercalator (FIG. 4). Therefore, by monitoring the blue-to-red color transition of hybridized oligonucleotide-modified Au nanoparticles in the presence of different compounds, the relative strength of intercalator binding can be determined with the naked-eye.
(§2) The assay is initiated by mixing NP-1 and NP-2 (1.5 nM each) in a 1:1 molar ratio in 10 mM PBS buffer (pH=7.0, NaCl 0.1 M. The melting temperatures of the nanoassemblies (NP-1 and NP-2) were then determined in the presence of 4′,6-diamidino-2-phenylindole (DAPI), ellipticine (EIPT), Amsacrine (AMSA), daunorubicin (DNR), anthraquinone-2-carboxylic acid (AQ2A), ethidium bromide (EB), and 9-aminoacridine (9-AA) (5 μM), respectively. UV melting profiles were measured by monitoring the absorbance at 520 nm at a scan rate of 0.5° C. min^−1. Melting temperatures were determined by taking the maxima of the first derivative of the melting curves. Control experiments were run by determining the melting temperatures of unmodified duplex DNA (DNA-1: 5′-TAACAATAA-3′, DNA-2: 5′-TTATTGTTA-3′) in the presence of all seven intercalators shown in Table 1.

[3] = tested on: unmodified duplex DNA (DNA-1: 5′-TAACAATAA-3′, DNA-2: 5′-TTATTGTTA-3′); assay: Melting temperature of solution-phase unmodified duplex DNA (no nanoparticles); conditions: for Tm, melting temperature of solution-phase unmodified DNA: 2 uM duplex DNA, 5 uM DNA binder, control (no DNA binder) 19.1; for relative trend in binding strength: from control experiments, Tm of solution-phase unmodified DNA (Table 2)
Procedure: as §2, §1

[4] = tested on: triplex DNA on chip surface; assay: Chip-based scanometric detection of triplex DNA binders (silver enhancement); conditions: varying salt concentrations (0.1 to 0.3 M NaCl), binder 5 μM, DNA-3 150 nM
Procedure: For scanometric detection of duplex or triplex DNA binding molecules, Au nanoparticles (1 nM) and DNA binding molecules (5 μM) in 10 mM PBS buffer of varying NaCl concentrations were added to the microarray slide under hybridization wells (Nanosphere, Inc.). For detection of triplex binders, 150 nM DNA-3 was added. DNA hybridization proceeded for 30 min (for duplex DNA binders) or 1 h (for triplex DNA binders) in a humidity chamber. After hybridization, the slides were washed three times with 0.5 M NaNO3 containing 0.02% Tween 20. The arrays were dried using a benchtop spinner. Silver enhancement solution (Nanosphere, Inc.) was added for Au-NP signal amplification (1 mL total volume/array, 1.5-min development time for duplex DNA binding molecules and 3 min for triplex binding molecules). The reaction was terminated by washing the slides with NANOpure® water and spin-drying. Light-scattering images from the silver-enhanced chips were recorded using the high-resolution Verigene ID system (Nanosphere, Inc.).
Capture strands of synthetic oligonucleotides are patterned on a glass chip using a microarrayer. The DNA chip is then exposed to a solution containing three components: 1) complementary DNA (no nanoparticles), 2) DNA functionalized Au nanoparticles (DNA is non-complementary to the arrayed DNA) and 3) DNA binders, Scheme 4. The complementary solution-phase DNA, called DNA-3 in Scheme 2, hybridizes to the DNA on the chip surface and forms a duplex. The Au nanoparticle-bound DNA has the correct sequence to form a triplex with the surface bound duplex through sequence-specific Hoogsteen, or reverse Hoogsteen, base pairing. The triplex structure is relatively unstable at room temperature and will only form in the presence of triplex DNA binding molecules. The presence of the triplex DNA binding molecules increase the stability of the triplex, immobilizing the Au nanoparticles on the chip surface. The chip was then exposed to silver enhancement solution for further signal enhancement and then imaged using a Verigene ID scanner.
The assay was performed in the presence of two triplex binders, coralyn (CORA) and benzo[e]pyridoindole (BePI), seven duplex DNA binders, 4′,6-diamidino-2-phenylindole (DAPI), ellipticine (EIPT), amsacrine (AMSA), daunorubicin (DNR), anthraquinone-2-carboxylic acid (AQ2A), ethidium bromide (EB), and 9-aminoacridine (9-AA))., and one control (no DNA-3). Similar to the DNA duplex, the formation of the DNA triplex is a reversible process which is affected by both temperature and salt concentration. However, compared to the duplex, the stability of the triplex is much more sensitive to salt concentration. Therefore, to determine the relative binding strength of the triplex DNA binders, the assay was performed at varying salt concentrations, FIG. 7. At 0.3 M NaCl, both the strong (BePI) and weaker (CORA) triplex binders show signal.

| SMILES | Tm 2-1 [1] [°C] | Tm^a, melting temperature of nanoassemblies [2] [°C] | Tm, melting temperature of solution-phase unmodified DNA [3] [°C] | scanometric signal [4] | relative trend in binding strength [3] |
| --- | --- | --- | --- | --- | --- |
| Nc1c2ccccc2nc2ccccc12 [9-AA, 9-aminoacridine] | 59.1 | 30.9 | 19.3 | No signal | – |
| O=C(O)c1ccc2c(c1)C(=O)c1ccccc1C2=O [AQ2A, anthraquinone-2-carboxylic acid] | 59.1 | 28.5 | 19.4 | No signal | – |
| N=C(N)c1ccc(-c2cc3ccc(C(=N)N)cc3[nH]2)cc1 [DAPI, 4′,6-diamidino-2-phenylindole] | 66.3 | 50.4 | 27.8 | No signal | DAPI>DNR>EB>other intercalators |
| COc1cccc2c1C(=O)c1c(O)c3c(c(O)c1C2=O)C[C@@](O)(C(C)=O)C[C@@H]3O[C@H]1C[C@H](N)[C@H](O)[C@H](C)O1 [DNR, daunorubicin] | 61.7 | 38.4 | 25.4 | No signal | DAPI>DNR>EB>other intercalators |
| Cc1c2ccncc2c(C)c2c1[nH]c1ccccc12 [EIPT, ellipticine] | 59.3 | 29.2 | 20.5 | No signal | – |
